Reference: US20160250190A1, “N-METHYL PYRAZOLOANTHRONE FOR TREATMENT OF CANCER” (THE GENERAL HOSPITAL CORPORATION, priority 2013, published 2016)
Entries after “also recorded” stand apart in the source; their conditions may differ.

How the values were obtained:
[1] = system: ptD primary ovarian cancer cells; experiment: MTT assay in ptD cells; type: cell-based, human; details: for dose of single agent giving virtually complete cell death (95% cell death) / IC50: ptD, 72 h; for dose of single agent giving virtually complete cell death (95% cell death): agent alone; for IC50: Homo sapiens
Protocol: Drug responses were evaluated in the well-established OVCAR5 cancer cell line and a variety of primary ovarian cancer cells lines derived from patient ascites (ptD, ptH, ptG, PKD1, PKD2).

OVCAR5 cells [2] = experiment: MTT assay in OVCAR5 cells; type: cell-based, human; details: for dose of single agent giving virtually complete cell death (95% cell death): 72 h, agent alone; for IC50: Homo sapiens, OVCAR-5, 72 h
Protocol: (§1) Drug responses were evaluated in the well-established OVCAR5 cancer cell line and a variety of primary ovarian cancer cells lines derived from patient ascites ([…], PKD1, PKD2).

[3] = system: c-JUN phosphorylation (canonical downstream target of JNKs); experiment: western blot of c-JUN phosphorylation in ptD cells; type: cell-based, human; details: 25 uM, 30 min
CDKi P21 = experiment: qPCR expression of CDKi P21 in ptD cells; type: cell-based, human; details: 25 μM, 2-48 h
Excerpt: (§2) To decipher the mechanism of cell cycle block observed by treatment with M-SP600, the inventors next assessed the expression of the kinases CDKi P15 and P21 by qPCR, since these kinases control G1/S transition.

CDKi P15 = experiment: qPCR expression of CDKi P15; type: cell-based
Excerpt: as §2

ptD cells = experiment: cell cycle distribution by PI staining and flow cytometry in ptD cells; type: cell-based, human
Excerpt: (§3) This pattern is observed in both cells lines, but is particularly pronounced in OVCAR5 (FIG. 5C).

[4] = system: OVCAR5 cells xenografted in the flank of nude mice; experiment: OVCAR5 xenograft in nude mice; type: in vivo, mouse; details: 60 mg/kg/day, 5 days on 2 days off for 3 weeks
Protocol: A longer experiment was subsequently carried out using OVCAR5 cells xenografted at 1×10^6 in the flank of nude mice, which were treated 72 h later in a 5 days on 2 days off schedule for 3 weeks at a dose of 60 mg/kg/day using 3 groups of 5 mice randomly selected.

MISR2 (MISRII) = molecular target: T1, MISR2 (MISRII) (Rattus norvegicus, UniProt Q62893); experiment: rat fetal urogenital ridge (UGR) assay; details: UGR culture, 72 h
T1 construct: UGR tissue is dissected from 14.5d female fetal rats and cultured ex-vivo; from tissue; host or cells: fetal rat urogenital ridge (14.5d female), organ culture
T1 sequence (Q62893 18-557): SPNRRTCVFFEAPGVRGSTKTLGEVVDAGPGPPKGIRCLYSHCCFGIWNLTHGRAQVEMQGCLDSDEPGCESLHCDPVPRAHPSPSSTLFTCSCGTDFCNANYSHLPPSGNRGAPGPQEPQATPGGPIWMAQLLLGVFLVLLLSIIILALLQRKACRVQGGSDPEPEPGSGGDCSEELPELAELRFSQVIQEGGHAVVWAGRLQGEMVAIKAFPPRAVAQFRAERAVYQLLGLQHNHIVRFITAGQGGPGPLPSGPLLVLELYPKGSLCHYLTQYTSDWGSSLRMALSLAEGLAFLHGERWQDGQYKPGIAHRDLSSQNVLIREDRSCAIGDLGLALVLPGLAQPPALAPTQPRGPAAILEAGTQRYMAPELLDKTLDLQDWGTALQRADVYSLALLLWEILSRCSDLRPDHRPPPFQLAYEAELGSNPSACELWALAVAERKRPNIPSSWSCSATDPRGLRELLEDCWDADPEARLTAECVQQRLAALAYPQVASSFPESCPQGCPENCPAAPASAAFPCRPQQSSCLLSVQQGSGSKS
Protocol: UGR tissue is dissected from 14.5d female fetal rats and cultured ex-vivo on a semi solid substrate (agarose droplet on a metal grid) suspended over media at the air/media interface. The UGR from each female is cultured for 72 h in presence of the drugs while the contralateral ridge is cultured in vehicle (DMSO) as a control. The regression of the Mullerian duct, which is specific to MIS activity, is measured in sections of UGR after fixing and embedding.

OVCAR5 cells [5] = experiment: cell cycle distribution by PI staining and flow cytometry in OVCAR5 cells; type: cell-based, human; details: OVCAR5 synchronized by serum deprivation 24 h, 25 uM with 10% serum
Excerpt: as §3

[6] = system: PtD cells xenografted in the flank of nude mice; experiment: PtD xenograft in nude mice; type: in vivo; details: 30 mg/kg/day for 3 consecutive days
300 kinases = details: 0.5 μM inhibitor, 10 uM ATP; cited from earlier work
[7] = system: OVCAR5 and primary ovarian cancer cell lines (ptD, ptH, ptG, PKD1, PKD2); experiment: MTT assay in a panel of ovarian cancer cell lines; type: cell-based, human; details: 72 h, all cell lines
Protocol: as §1

JNKs = details: Bennet et al. 2001; cited from earlier work

Compound: COc1cccc2c1C(=O)c1c(O)c3c(c(O)c1C2=O)C[C@@](O)(C(=O)CO)C[C@@H]3O[C@H]1C[C@H](N)[C@H](O)[C@H](C)O1 [DOX, doxorubicin, reference compound]
- dose of single agent giving virtually complete cell death (95% cell death) [1]: greater than 300 μM
- dose of single agent giving virtually complete cell death (95% cell death) (OVCAR5 cells [2]): 300 µM

Compound: CCOc1nc(NC(=O)Cc2cc(OC)ccc2OC)cc(N)c1C#N [JNK inhibitor VIII, reference compound]
- c-JUN phosphorylation [3]: inhibited

Compound: Cn1nc2c3c(cccc31)C(=O)c1ccccc1-2 [M-SP600, N1-methyl-1,9-pyrazolothrone]
- expression of P21 by qPCR (CDKi P21): induce P21; also recorded: greater for the M-SP600 than the SP600
- expression of P15 (CDKi P15): upregulation of P21 and P15
- cell cycle distribution (ptD cells; asynchronous ptD cells, 25 uM, 24 h): marked reduction in cells in S phase accompanied by an accumulation of cells particularly in G1 and less so in G2; also recorded: more pronounced with M-SP600 than SP600
- cell cycle block (ptD cells; ptD synchronized by serum deprivation 24 h, 25 uM with 10% serum): causes a G1 block
- IC50 [1]: 6.25 µM
- dose of single agent giving virtually complete cell death (95% cell death) [1]: 50 µM
- dose of single agent giving virtually complete cell death (95% cell death) (OVCAR5 cells [2]): 50 µM
- IC50 (OVCAR5 cells [2]): 12.5 µM
- tumor growth ([4]; versus control at day 15): significantly inhibited
- tumor growth ([4]; versus control at day 15, listed as MSP600, 60 mg/kg/day): significantly lower than control
- size of Wolffian ducts (MISR2 (MISRII)): smaller Wolffian ducts
- cell cycle block (OVCAR5 cells [5]): causes a G1 block
- tolerability [6]: well tolerated
- tumor growth ([6]; one week after implant): strong trend emerged of inhibition of tumor growth
- number of kinases inhibited at more than 50% (300 kinases): 4
- inhibition of cancer cell growth [7]: inhibited
- inhibition of JNKs (JNKs): does not inhibit JNKs

Compound: Oc1c2ccccc2c2c3c(cccc13)N=N2 [SP600, 1,9-pyrazoloathrone, reference compound]
- IC50 [1]: 6.25 µM
- IC50 (OVCAR5 cells [2]): 12.5 µM
- tolerability [6]: well tolerated

Compound: CCCS(=O)(=O)Nc1ccc(F)c(C(=O)c2c[nH]c3ncc(-c4ccc(Cl)cc4)cc23)c1F [Vemurafinib]
- sensitivity of cells to the drug ([1]; ptD cells with BRAF V600E mutation): exquisitely sensitive
